Reference: US10681909B2, “Herbicidal triazoles” (FMC Corporation, priority 2014, dated 2020)

Columns and labels:
oat, wild = assay: Test D postemergence; assay type: in vivo, Avena fatua; conditions: scale 0 to 100
Text: (§1) Seeds of plant species selected from bluegrass (annual bluegrass, Poa annua), blackgrass (Alopecurus myosuroides), canarygrass (Phalaris minor), chickweed (common chickweed, Stellaria media), galium (catchweed bedstraw, Galium aparine), bromegrass, down (downy bromegrass, Bromus tectorum), Russian thistle (Salsola kali), field poppy (Papaver rhoeas), field violet (Viola arvensis), foxtail, green (green foxtail, Setaria viridis), deadnettle (henbit deadnettle, Lamium amplexicaule), ryegrass, Ital. (Italian ryegrass, Lolium multiflorum), kochia (Kochia scoparia), lambsquarters (Chenopodium album), oilseed rape (Brassica napus), pigweed (Amaranthus retroflexus), chamomile (scentless chamomile, Matricaria inodora), speedwell (bird's-eye speedwell, Veronica persica), barley, spring (spring barley, Hordeum vulgare), wheat, spring (spring wheat, Triticum aestivum), buckwheat, wild (wild buckwheat, Polygonum convolvulus), wild mustard (Sinapis arvensis), oat, wild (wild oat, Avena fatua), radish, wild (wild radish, Raphanus raphanistrum), […]), barley, winter (winter barley, Hordeum vulgare), and wheat, winter (winter wheat, Triticum aestivum) were planted into a silt loam soil and treated preemergence with test chemicals formulated in a non-phytotoxic solvent mixture which included a surfactant. At the same time, these species were planted in pots containing Sunshine Redi-Earth® planting medium comprising spaghnum peat moss, vermiculite, starter nutrients and dolomitic limestone and treated with postemergence applications of the test chemicals formulated in the same manner. Plants ranged in height from 2 to 18 cm (1- to 4-leaf stage). Treated plants and controls were maintained in a controlled growth environment for 14 to 21 d after which time all species were compared to controls and visually evaluated. […] A dash (-) response means no test result.

blackgrass = assay: Test D postemergence; assay type: in vivo, Alopecurus myosuroides; conditions: scale 0 to 100
Text: as §1

kochia [1] = assay: Test A preemergence; assay type: in vivo, Kochia scoparia; conditions: 0 to 100 scale (0 no effect, 100 complete control)
Procedure, shortened: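 Visual injury score, 0 (no effect) to 100 (complete control), taken about 10 d after treatment against untreated greenhouse controls. Chemicals formulated in non-phytotoxic solvent plus surfactant; preemergence by directed soil spray onto sown loam/sand, postemergence onto one- to two-leaf plants.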

wild mustard = assay: Test D preemergence; assay type: in vivo, Sinapis arvensis; conditions: for Plant response rating (0 to 100), Mustard, Wild: 16 g ai/ha, 0 is no effect, 100 is complete control; for Plant response rating: Mustard, Wild: scale 0 to 100
Text: as §1

Russian thistle = assay: Test D postemergence; assay type: in vivo, Salsola kali; conditions: scale 0 to 100
Text: as §1

kochia [2] = assay: Test D preemergence; assay type: in vivo, Kochia scoparia; conditions: for Plant response rating (0 to 100), Kochia: 16 g ai/ha, 0 is no effect, 100 is complete control; for Plant response rating: Kochia: scale 0 to 100
Text: as §1

lambsquarters = assay: Test D preemergence; assay type: in vivo, Chenopodium album; conditions: for Plant response rating (0 to 100), Lambsquarters: 16 g ai/ha, 0 is no effect, 100 is complete control; for Plant response rating: Lambsquarters: scale 0 to 100
Text: as §1

field violet = assay: Test D preemergence; assay type: in vivo, Viola arvensis; conditions: for Plant response rating (0 to 100), Field Violet: 16 g ai/ha, 0 is no effect, 100 is complete control; for Plant response rating: Field Violet: scale 0 to 100
Text: as §1

field poppy = assay: Test D postemergence; assay type: in vivo, Papaver rhoeas; conditions: scale 0 to 100
Text: as §1

pigweed = assay: Test C preemergence; assay type: in vivo, Amaranthus retroflexus; conditions: for Plant response rating (scale of 0 to 100 where 0 is no effect and 100 is complete control): Pigweed, preemergence; for Pigweed plant response rating (0 to 100): Preemergence, visual rating after 13 to 15 d
Text: (§2) Seeds of plant species selected from blackgrass (Alopecurus myosuroides), ryegrass, Italian (Italian ryegrass, Lolium multiflorum), wheat (winter wheat, Triticum aestivum), galium (catchweed bedstraw, Galium aparine), corn (Zea mays), crabgrass, large (large crabgrass, Digitaria sanguinalis), foxtail, giant, (giant foxtail, Setaria faberii), johnsongrass (Sorghum halepense), lambsquarters (Chenopodium album), morningglory (Ipomoea coccinea), nutsedge, yellow (yellow nutsedge, Cyperus esculentus), pigweed (Amaranthus retroflexus), ragweed (common ragweed, Ambrosia elatior), soybean (Glycine max), barnyardgrass (Echinochloa crus-galli), oilseed rape (Brassica napus), waterhemp (common waterhemp, Amaranthus rudis), and velvetleaf (Abutilon theophrasti) were planted into a blend of loam soil and sand and treated preemergence with test chemicals formulated in a non-phytotoxic solvent mixture which included a surfactant. At the same time, plants selected from these crop and weed species and also chickweed (common chickweed, Stellaria media), oat, wild (wild oat, Avena fatua), and kochia (Kochia scoparia), were planted in pots containing Sunshine Redi-Earth® planting medium comprising spaghnum peat moss, vermiculite, starter nutrients and dolomitic limestone and treated with postemergence applications of test chemicals formulated in the same manner. Plants ranged in height from 2 to 18 cm (1- to 4-leaf stage) for postemergence treatments. […] A dash (-) response means no test result.

speedwell = assay: Test D preemergence; assay type: in vivo, Veronica persica; conditions: for Plant response rating (0 to 100), Speedwell: 16 g ai/ha, 0 is no effect, 100 is complete control; for Plant response rating: Speedwell: scale 0 to 100
Text: as §1

oilseed rape = assay: Test C preemergence; assay type: in vivo, Brassica napus; conditions: for Plant response rating (scale of 0 to 100 where 0 is no effect and 100 is complete control): Oilseed Rape, preemergence; for Oilseed Rape plant response rating (0 to 100): Preemergence, visual rating after 13 to 15 d
Text: as §2

## CCOc1nc(-c2ccccc2)nn1Cc1ccnc(C(F)(F)F)c1 [Compound 27]
oat, wild; 16 g ai/ha
  Plant response rating: Oat, Wild: 35
oat, wild; 31 g ai/ha
  Plant response rating: Oat, Wild: 45
oat, wild; 62 g ai/ha
  Plant response rating: Oat, Wild: 50
oat, wild; 125 g ai/ha
  Plant response rating: Oat, Wild: 60
blackgrass; 16 g ai/ha
  Plant response rating: Blackgrass: 45
blackgrass; 31 g ai/ha
  Plant response rating: Blackgrass: 50
blackgrass; 62 g ai/ha
  Plant response rating: Blackgrass: 55
blackgrass; 125 g ai/ha
  Plant response rating: Blackgrass: 65
Kochia [1]; 125 g ai/ha
  Plant response rating, Kochia: 100
Kochia [1]; 500 g ai/ha, approx. 10 d
  Plant response rating, Kochia: 100
Wild mustard
  Plant response rating (0 to 100), Mustard, Wild: 80
Wild mustard; 62 g ai/ha
  Plant response rating: Mustard, Wild: 100
Wild mustard; 125 g ai/ha
  Plant response rating: Mustard, Wild: 100
Russian thistle; 16 g ai/ha
  Plant response rating: Russian Thistle: 75
Russian thistle; 31 g ai/ha
  Plant response rating: Russian Thistle: 80
Russian thistle; 62 g ai/ha
  Plant response rating: Russian Thistle: 85
Russian thistle; 125 g ai/ha
  Plant response rating: Russian Thistle: 85
Kochia [2]
  Plant response rating (0 to 100), Kochia: 85
Kochia [2]; 62 g ai/ha
  Plant response rating: Kochia: 95
Kochia [2]; 125 g ai/ha
  Plant response rating: Kochia: 100
lambsquarters
  Plant response rating (0 to 100), Lambsquarters: 85
lambsquarters; 62 g ai/ha
  Plant response rating: Lambsquarters: 95
lambsquarters; 125 g ai/ha
  Plant response rating: Lambsquarters: 95
Field violet
  Plant response rating (0 to 100), Field Violet: 85
Field violet; 62 g ai/ha
  Plant response rating: Field Violet: 98
Field violet; 125 g ai/ha
  Plant response rating: Field Violet: 100
Field poppy; 16 g ai/ha
  Plant response rating: Field Poppy: 75
Field poppy; 31 g ai/ha
  Plant response rating: Field Poppy: 80
Field poppy; 62 g ai/ha
  Plant response rating: Field Poppy: 85
Field poppy; 125 g ai/ha
  Plant response rating: Field Poppy: 100
pigweed; 125 g ai/ha
  Plant response rating (scale of 0 to 100 where 0 is no effect and 100 is complete control): 100
pigweed; 250 g ai/ha
  Plant response rating (scale of 0 to 100 where 0 is no effect and 100 is complete control): 100
pigweed; 31 g ai/ha
  Pigweed plant response rating (0 to 100): 100
pigweed; 62 g ai/ha
  Pigweed plant response rating (0 to 100): 100
speedwell
  Plant response rating (0 to 100), Speedwell: 95
speedwell; 62 g ai/ha
  Plant response rating: Speedwell: 100
speedwell; 125 g ai/ha
  Plant response rating: Speedwell: 100
Oilseed rape; 125 g ai/ha
  Plant response rating (scale of 0 to 100 where 0 is no effect and 100 is complete control): 100
Oilseed rape; 250 g ai/ha
  Plant response rating (scale of 0 to 100 where 0 is no effect and 100 is complete control): 100
Oilseed rape; 31 g ai/ha
  Oilseed Rape plant response rating (0 to 100): 90
Oilseed rape; 62 g ai/ha
  Oilseed Rape plant response rating (0 to 100): 90

## FC(F)(F)COc1nc(-c2ccccc2)nn1Cc1ccnc(C(F)(F)F)c1 [Compound 24]
oat, wild; 16 g ai/ha
  Plant response rating: Oat, Wild: 35
oat, wild; 31 g ai/ha
  Plant response rating: Oat, Wild: 45
oat, wild; 62 g ai/ha
  Plant response rating: Oat, Wild: 50
oat, wild; 125 g ai/ha
  Plant response rating: Oat, Wild: 55
blackgrass; 16 g ai/ha
  Plant response rating: Blackgrass: 25
blackgrass; 31 g ai/ha
  Plant response rating: Blackgrass: 35
blackgrass; 62 g ai/ha
  Plant response rating: Blackgrass: 45
blackgrass; 125 g ai/ha
  Plant response rating: Blackgrass: 65
Kochia [1]; 125 g ai/ha
  Plant response rating, Kochia: 80
Kochia [1]; 500 g ai/ha, approx. 10 d
  Plant response rating, Kochia: 90
Wild mustard
  Plant response rating (0 to 100), Mustard, Wild: 65
Wild mustard; 62 g ai/ha
  Plant response rating: Mustard, Wild: 100
Wild mustard; 125 g ai/ha
  Plant response rating: Mustard, Wild: 100
Russian thistle; 16 g ai/ha
  Plant response rating: Russian Thistle: 65
Russian thistle; 31 g ai/ha
  Plant response rating: Russian Thistle: 75
Russian thistle; 62 g ai/ha
  Plant response rating: Russian Thistle: 85
Russian thistle; 125 g ai/ha
  Plant response rating: Russian Thistle: 85
Kochia [2]
  Plant response rating (0 to 100), Kochia: 85
Kochia [2]; 62 g ai/ha
  Plant response rating: Kochia: 90
Kochia [2]; 125 g ai/ha
  Plant response rating: Kochia: 90
lambsquarters
  Plant response rating (0 to 100), Lambsquarters: 65
lambsquarters; 62 g ai/ha
  Plant response rating: Lambsquarters: 80
lambsquarters; 125 g ai/ha
  Plant response rating: Lambsquarters: 85
Field violet
  Plant response rating (0 to 100), Field Violet: 0
Field violet; 62 g ai/ha
  Plant response rating: Field Violet: 80
Field violet; 125 g ai/ha
  Plant response rating: Field Violet: 100
Field poppy; 16 g ai/ha
  Plant response rating: Field Poppy: 60
Field poppy; 31 g ai/ha
  Plant response rating: Field Poppy: 75
Field poppy; 62 g ai/ha
  Plant response rating: Field Poppy: 80
Field poppy; 125 g ai/ha
  Plant response rating: Field Poppy: 100
pigweed; 125 g ai/ha
  Plant response rating (scale of 0 to 100 where 0 is no effect and 100 is complete control): 100
pigweed; 250 g ai/ha
  Plant response rating (scale of 0 to 100 where 0 is no effect and 100 is complete control): 100
pigweed; 31 g ai/ha
  Pigweed plant response rating (0 to 100): 100
pigweed; 62 g ai/ha
  Pigweed plant response rating (0 to 100): 100
speedwell
  Plant response rating (0 to 100), Speedwell: 80
speedwell; 62 g ai/ha
  Plant response rating: Speedwell: 100
speedwell; 125 g ai/ha
  Plant response rating: Speedwell: 100
Oilseed rape; 125 g ai/ha
  Plant response rating (scale of 0 to 100 where 0 is no effect and 100 is complete control): 35
Oilseed rape; 250 g ai/ha
  Plant response rating (scale of 0 to 100 where 0 is no effect and 100 is complete control): 98
Oilseed rape; 31 g ai/ha
  Oilseed Rape plant response rating (0 to 100): 5
Oilseed rape; 62 g ai/ha
  Oilseed Rape plant response rating (0 to 100): 30
